Experimental data published in patent US20160257997A1, “METHODS FOR WHOLE-CELL ANALYSIS OF GRAM-POSITIVE BACTERIA” (AdvanDx, Inc., priority 2009, published 2016).
Converted amounts (≈) assume the structure as drawn. Read-outs that look alike come from different tables or passages of the source.

What was measured:
S. aureus (MRSA) = assay: cefoxitin Etest susceptibility testing (MIC), MRSA; assay type: cell-based, Staphylococcus aureus
S. aureus (MSSA) = assay: cefoxitin Etest susceptibility testing (MIC), MSSA; assay type: cell-based, Staphylococcus aureus
MR-CNS = assay: cefoxitin Etest susceptibility testing (MIC), MR-CNS; assay type: cell-based, coagulase-negative staphylococci
MS-CNS = assay: cefoxitin Etest susceptibility testing (MIC), MS-CNS; assay type: cell-based, coagulase-negative staphylococci

- MIC (S. aureus (MRSA); Staphylococcus aureus, ATCC 33591 / MRSA, cefoxitin Etest, Reference (ATCC 33591), SCCmec type III, read-out: MIC): ≥ 256 µg/mL
- MIC (S. aureus (MRSA); Staphylococcus aureus, ATCC 33591 / MRSA, cefoxitin, strain 2, MRSA ATCC 33591, SCCmec III, read-out: MIC Etest): ≥ 256 µg/mL
- MIC (S. aureus (MRSA); Staphylococcus aureus, ATCC 43300 / MRSA, cefoxitin Etest, Reference (ATCC 43300), SCCmec type II, read-out: MIC): 128 µg/mL (≈ 299 µM)
- MIC (S. aureus (MRSA); Staphylococcus aureus, ATCC 43300 / MRSA, cefoxitin, strain 39, MRSA ATCC 43300, SCCmec II, read-out: MIC Etest): 128 µg/mL (≈ 299 µM)
- MIC (S. aureus (MRSA); Staphylococcus aureus, MRSA / NCTC 10422, cefoxitin Etest, Reference (NCTC10422), SCCmec type Ib, read-out: MIC): ≥ 256 µg/mL
- MIC (S. aureus (MRSA); Staphylococcus aureus, MRSA / USA300, cefoxitin Etest, Reference (USA300), SCCmec type IV, read-out: MIC): 48 µg/mL (≈ 112 µM)
- MIC (S. aureus (MRSA); Staphylococcus aureus, MRSA / USA300, cefoxitin, strain 886, MRSA USA300, SCCmec IV, read-out: MIC Etest): 48 µg/mL (≈ 112 µM)
- MIC (S. aureus (MRSA); Staphylococcus aureus, MRSA / USA500, cefoxitin Etest, Reference (USA500), SCCmec type IV, read-out: MIC): 48 µg/mL (≈ 112 µM)
- MIC (S. aureus (MRSA); Staphylococcus aureus, MRSA, cefoxitin Etest, Reference (Clinical COL), SCCmec type I, read-out: MIC): ≥ 256 µg/mL
- MIC (S. aureus (MRSA); Staphylococcus aureus, MRSA, cefoxitin Etest, Reference (Clinical EU), SCCmec type Ia, read-out: MIC): ≥ 256 µg/mL
- MIC (S. aureus (MRSA); Staphylococcus aureus, MRSA, cefoxitin Etest, Reference (DK, SSI), SCCmec type IIIa, read-out: MIC): ≥ 256 µg/mL
- MIC (S. aureus (MRSA); Staphylococcus aureus, MRSA, cefoxitin Etest, Reference (DK, SSI), SCCmec type V, read-out: MIC): 12 µg/mL (≈ 28.1 µM)
- MIC (S. aureus (MRSA); Staphylococcus aureus, MRSA, cefoxitin, strain 9, MRSA EU, SCCmec I, read-out: MIC Etest): ≥ 256 µg/mL
- MIC (S. aureus (MRSA); Staphylococcus aureus, MRSA, cefoxitin, strain 11, MRSA EU, SCCmec II, read-out: MIC Etest): ≥ 256 µg/mL
- MIC (S. aureus (MRSA); Staphylococcus aureus, MRSA, cefoxitin, strain 13, MRSA, SCCmec IIIa, read-out: MIC Etest): ≥ 256 µg/mL
- MIC (S. aureus (MRSA); Staphylococcus aureus, MRSA, cefoxitin, strain 306, MRSA DK, SCCmec V, read-out: MIC Etest): 12 µg/mL (≈ 28.1 µM)
- MIC (S. aureus (MRSA); Staphylococcus aureus, MRSA, cefoxitin, strain 320, MRSA clinical DK, SCCmec IV, read-out: MIC Etest): ≥ 256 µg/mL
- MIC (S. aureus (MRSA); Staphylococcus aureus, MRSA, cefoxitin, strain 1468, MRSA COL, SCCmec I, read-out: MIC Etest): ≥ 256 µg/mL
- MIC (S. aureus (MRSA); cefoxitin Etest, strain 2, MRSA, Reference (ATCC 33591), type III): ≧256
- MIC (S. aureus (MRSA); cefoxitin Etest, strain 9, MRSA, Reference EU, type I): ≧256
- MIC (S. aureus (MRSA); cefoxitin Etest, strain 10, MRSA, Reference EU, type Ia): ≧256
- MIC (S. aureus (MRSA); cefoxitin Etest, strain 11, MRSA, Reference EU, type II): ≧256
- MIC (S. aureus (MRSA); cefoxitin Etest, strain 12, MRSA, Reference EU, type III): ≧256
- MIC (S. aureus (MRSA); cefoxitin Etest, strain 13, MRSA, Reference EU, type IIIa): ≧256
- MIC (S. aureus (MRSA); cefoxitin Etest, strain 15, MRSA, Clinical DK, type IV/ST80): 48 µg/mL (≈ 112 µM)
- MIC (S. aureus (MRSA); cefoxitin Etest, strain 39, MRSA, Reference (ATCC 43300), type II (EVIGENE)): 128 µg/mL (≈ 299 µM)
- MIC (S. aureus (MRSA); cefoxitin Etest, strain 295, MRSA, Reference DK, type IA): ≧256
- MIC (S. aureus (MRSA); cefoxitin Etest, strain 297, MRSA, Reference DK, type IA, EVIGENE IV): 48 µg/mL (≈ 112 µM)
- MIC (S. aureus (MRSA); cefoxitin Etest, strain 298, MRSA, Reference DK, type II): ≧256
- MIC (S. aureus (MRSA); cefoxitin Etest, strain 299, MRSA, Reference DK, type II): ≧256
- MIC (S. aureus (MRSA); cefoxitin Etest, strain 300, MRSA, Reference DK, type II): ≧256
- MIC (S. aureus (MRSA); cefoxitin Etest, strain 302, MRSA, Reference DK, type IIIA): ≧256
- MIC (S. aureus (MRSA); cefoxitin Etest, strain 303, MRSA, Reference DK, type III): ≧256
- MIC (S. aureus (MRSA); cefoxitin Etest, strain 304, MRSA, Reference DK, type IV): 48 µg/mL (≈ 112 µM)
- MIC (S. aureus (MRSA); cefoxitin Etest, strain 305, MRSA, Reference DK, type III): ≧256
- MIC (S. aureus (MRSA); cefoxitin Etest, strain 306, MRSA, Reference DK, type V): 12 µg/mL (≈ 28.1 µM)
- MIC (S. aureus (MRSA); cefoxitin Etest, strain 307, MRSA, Reference DK, type IV): 48 µg/mL (≈ 112 µM)
- MIC (S. aureus (MRSA); cefoxitin Etest, strain 320, MRSA, Clinical DK, type IV (EVIGENE)): ≧256
- MIC (S. aureus (MRSA); cefoxitin Etest, strain 321, MRSA, Clinical DK, type V (EVIGENE)): 96 µg/mL (≈ 225 µM)
- MIC (S. aureus (MRSA); cefoxitin Etest, strain 460, MRSA, Reference, Tokyo, type V): 12 µg/mL (≈ 28.1 µM)
- MIC (S. aureus (MRSA); cefoxitin Etest, strain 463, MRSA, Reference (NCTC10422), type Ib): ≧256
- MIC (S. aureus (MRSA); cefoxitin Etest, strain 557, MRSA, Reference (USA300), type IV): 64 µg/mL (≈ 150 µM)
- MIC (S. aureus (MRSA); cefoxitin Etest, strain 559, MRSA, Reference (USA300), type IV): ≧256
- MIC (S. aureus (MRSA); cefoxitin Etest, strain 560, MRSA, Reference (USA500), type IV): 48 µg/mL (≈ 112 µM)
- MIC (S. aureus (MRSA); cefoxitin Etest, strain 797, MRSA, Clinical DK, type II (EVIGENE)): 64 µg/mL (≈ 150 µM)
- MIC (S. aureus (MRSA); cefoxitin Etest, strain 801, MRSA, Clinical DK, type II (EVIGENE)): ≧256
- MIC (S. aureus (MRSA); cefoxitin Etest, strain 812, MRSA, Clinical DK, type II (EVIGENE)): ≧256
- MIC (S. aureus (MRSA); cefoxitin Etest, strain 886, MRSA, Reference (FPR3757, USA300), type IV): 48 µg/mL (≈ 112 µM)
- MIC (S. aureus (MRSA); cefoxitin Etest, strain 920, MRSA, Clinical DK, type I (EVIGENE)): ≧256
- MIC (S. aureus (MRSA); cefoxitin Etest, strain 924, MRSA, Clinical DK, type IV (EVIGENE)): 96 µg/mL (≈ 225 µM)
- MIC (S. aureus (MRSA); cefoxitin Etest, strain 926, MRSA, Clinical DK, type IV (EVIGENE)): 48 µg/mL (≈ 112 µM)
- MIC (S. aureus (MRSA); cefoxitin Etest, strain 927, MRSA, Clinical DK, type IV): 24 µg/mL (≈ 56.1 µM)
- MIC (S. aureus (MRSA); cefoxitin Etest, strain 931, MRSA, Clinical DK, type III (EVIGENE)): ≧256
- MIC (S. aureus (MRSA); cefoxitin Etest, strain 1184, MRSA, Reference (ATCC BAA-1708), type II (EVIGENE)): 96 µg/mL (≈ 225 µM)
- MIC (S. aureus (MRSA); cefoxitin Etest, strain 1468, MRSA, Reference (COL), type I): ≧256
- MIC (S. aureus (MSSA); Staphylococcus aureus, ATCC 11632 / MSSA, cefoxitin Etest, MSSA Reference (ATCC 11632), read-out: MIC): 3 µg/mL (≈ 7.02 µM)
- MIC (S. aureus (MSSA); Staphylococcus aureus, ATCC 25923 / MSSA, cefoxitin Etest, MSSA Reference (ATCC 25923), read-out: MIC): 3 µg/mL (≈ 7.02 µM)
- MIC (S. aureus (MSSA); Staphylococcus aureus, ATCC 25923 / MSSA, cefoxitin, strain 155, MSSA ATCC 25923, read-out: MIC Etest): 3 µg/mL (≈ 7.02 µM)
- MIC (S. aureus (MSSA); Staphylococcus aureus, ATCC 29213 / MSSA, cefoxitin Etest, MSSA Reference (ATCC 29213), read-out: MIC): 4 µg/mL (≈ 9.36 µM)
- MIC (S. aureus (MSSA); Staphylococcus aureus, ATCC 29213 / MSSA, cefoxitin, strain 156, MSSA ATCC 29213, read-out: MIC Etest): 4 µg/mL (≈ 9.36 µM)
- MIC (S. aureus (MSSA); Staphylococcus aureus, cefoxitin, MSSA (n = 15), read-out: MIC Etest): 3 to 4 µg/mL (≈ 7.02 to 9.36 µM)
- MIC (S. aureus (MSSA); cefoxitin Etest, strain 1, MSSA, Reference (ATCC 6538)): 3 µg/mL (≈ 7.02 µM)
- MIC (S. aureus (MSSA); cefoxitin Etest, strain 21, MSSA, Clinical EU): 4 µg/mL (≈ 9.36 µM)
- MIC (S. aureus (MSSA); cefoxitin Etest, strain 22, MSSA, Clinical DK): 4 µg/mL (≈ 9.36 µM)
- MIC (S. aureus (MSSA); cefoxitin Etest, strain 23, MSSA, Clinical DK): 3 µg/mL (≈ 7.02 µM)
- MIC (S. aureus (MSSA); cefoxitin Etest, strain 24, MSSA, Clinical DK): 4 µg/mL (≈ 9.36 µM)
- MIC (S. aureus (MSSA); cefoxitin Etest, strain 26, MSSA, Clinical DK): 4 µg/mL (≈ 9.36 µM)
- MIC (S. aureus (MSSA); cefoxitin Etest, strain 54, MSSA, Clinical EU): 4 µg/mL (≈ 9.36 µM)
- MIC (S. aureus (MSSA); cefoxitin Etest, strain 117, MSSA, Reference (ATCC 11632)): 3 µg/mL (≈ 7.02 µM)
- MIC (S. aureus (MSSA); cefoxitin Etest, strain 155, MSSA, Reference (ATCC 25923)): 3 µg/mL (≈ 7.02 µM)
- MIC (S. aureus (MSSA); cefoxitin Etest, strain 156, MSSA, Reference (ATCC 29213)): 4 µg/mL (≈ 9.36 µM)
- MIC (MR-CNS; strain 4, MR-CNS, S. epidermidis, Reference (ATCC 51625)): 32 µg/mL (≈ 74.9 µM)
- MIC (MR-CNS; strain 154, MR-CNS, S. saccharolyticus, Reference (ATCC 14953)): ≧256
- MIC (MR-CNS; strain 350, MR-CNS, S. epidermidis, Reference): ≧256
- MIC (MR-CNS; strain 351, MR-CNS, S. warneri, Reference DK): 192 µg/mL (≈ 449 µM)
- MIC (MR-CNS; strain 352, MR-CNS, S. epidermidis, Reference DK): 256 µg/mL (≈ 599 µM)
- MIC (MR-CNS; strain 353, MR-CNS, S. hominis, Reference DK): 64 µg/mL (≈ 150 µM)
- MIC (MR-CNS; strain 408, MR-CNS, Clinical DK): ≧256
- MIC (MR-CNS; strain 412, MR-CNS, Clinical DK): ≧256
- MIC (MR-CNS; strain 414, MR-CNS, Clinical DK): 256 µg/mL (≈ 599 µM)
- MIC (MS-CNS; cefoxitin Etest, strain 629, MS-CNS, S. epidermidis, Reference (ATCC 14990)): 1.5 µg/mL (≈ 3.51 µM)
- MIC (MS-CNS; cefoxitin, MS-CNS (n = 5), read-out: MIC Etest): 1.5 µg/mL (≈ 3.51 µM)
Compound: CO[C@@]1(NC(=O)Cc2cccs2)C(=O)N2C(C(=O)O)=C(COC(N)=O)CS[C@@H]21 [cefoxitin]
